Values quoted from earlier work in patent US12569529B2, “Natural combination products and methods for regulation of kidney and excretory system function” (Pure Care Pro LLC, priority 2018, dated 2026).

Experiments:
[1] = system: kidney proximal tubular cells; settings: kidney proximal tubular cells in culture

| Compound | cisplatin-induced reactive oxygen species (ROS) [1] | cell viability ([1]; cisplatin) | ADMA levels (patients with CKD) |
| --- | --- | --- | --- |
| Cc1c(C)c2c(c(C)c1O)CC[C@@](C)(CCC[C@H](C)CCC[C@H](C)CCCC(C)C)O2 [α-tocopherol] | decreased | increased |  |
| vitamin E |  |  | reductions |
